Measurements from patent publication US20110212116A1, “IMMUNOGENIC PEPTIDES AND USES THEREOF” (Cancer Research Technology Limited, priority 2008, published 2011).

Experiments:
healthy donor T cells = experiment: IFNγ ELISA of healthy donor T cells stimulated with peptide loaded autologous DCs; format: cell-based, human; settings: for IFNγ responses following stimulation with autologous DCs loaded with wild type peptide: in one of three normal donors tested; for IFNγ production from normal donor T cells: modified peptides P11-P16, six normal donors
Description: PBMCs were prepared from healthy donor buffy coats as described above. Monocytes were obtained from newly sourced buffy coats, or cells thawed at 10^6/ml in warm X-VIVO medium, 1% human AB serum and plated in 90 mm TC dishes. Plates were incubated at 37° C. for at least 4 hours and non adherent cells removed by gently washing with media or HBSS or CD14^+ cells were positively selected as described. The remaining T cell enriched cells were cryopreserved for use as effectors in later assays. The CD14^+ fraction/adherent cells were cultured in IL-4 (1000 IU/ml) and GM-CSF (800 U/ml) for 5 days to induce differentiation to a dendritic cell (DC) phenotype. On day 3 fresh IL-4 and GM-CSF were added. On day 5 TNFα (10 ng/ml), IL-6 (1000 U/ml) and IL-1β (10 ng/ml) all from R&D systems UK and PGE2 (1 μg/ml) (from Sigma, UK) were added to plates. On day 6 DCs were harvested from plates and washed with HBSS to remove residual cytokines before use in immunological experiments. Analysis of DC phenotype was carried out by flow cytometry.
IL-2 and IFNγ levels were determined with Duo set ELISA Development System (R&D Systems), according to the manufacturer's instructions. Supernatants were collected at various time points (days 3, 7, 10 and 14) in order to detect peak cytokine levels.
(§1) After 24 hours in maturation cytokines, DCs were incubated with peptide (50 μg/ml) for 4 hours. PBMCs or CD3^+ cells from healthy donors or patients with solid tumours were seeded into a 12-well plate, in X-VIVO 15 at a density of 2×10^6/ml. Peptide pulsed, monocyte derived DCs were washed and prepared at 2×10^5/ml. PBMC cultures received peptide pulsed DCs at a stimulator:effector ratio of […], or in the case of unstimulated controls, medium only. IL-7 was added to cultures at a final concentration of 10 U/ml on day 3. Cultures were restimulated by addition of peptide pulsed DCs on, day 7, and in some cases day 14, together with IL-7 and IL-2 (both at 10 U/ml). 200 μl of culture supernatants were collected at various intervals throughout the culture period and replaced with fresh medium. In the case of AML patient cultures, T2 cells were pulsed with peptide and used as stimulators in the same way as autologous DCs described above. Culture supernatants were analysed for IFNγ content by ELISA. After the 2-3 week culture period, stimulated effector cells were washed and analysed by pentamer staining, intracellular cytokine staining or ELISPOT assays.

HHD mice = experiment: Mouse IFNγ-ELISpot after pDOM-epitope DNA vaccination; settings: HHD mice, prime only, 14 days later
Description: HHD mice at 6 to 10 weeks of age were injected intramuscularly (i.m.) into both quadriceps with a total of 50 μg DNA in saline solution on day 0. Unless stated otherwise mice were boosted with the same DNA vaccine delivered with in vivo electroporation on day 28 as previously described^5.
Vaccine-specific IFNγ secretion by lymphocytes from individual mice was assessed ex vivo (BD ELISpot Set, BD PharMingen, San Diego, Calif.) on day 14 or 36, as described previously with some modifications^11. Briefly, viable lymphocytes were selected from splenocyte preparations by density centrifugation. […] Data are expressed as the frequency of spot-forming cells (SFCs) per million lymphocytes. For analysis of peptide-specific T-cell sensitivity, splenic lymphocytes from immunized mice were incubated with a range of PASD1 peptide concentrations and the frequency of specific cells assessed by ELISpot analysis as described. The number of SFC/million cells at the peptide concentration inducing the greatest response was assigned a value of 100%. For each peptide concentration tested the % maximal response was then calculated by the formula: (experimental SFCs per million cells/maximal SFCs per million cells)×100% for each individual animal.

[1] = system: healthy donor CD8+ T cells; experiment: Pentamer staining, healthy donor CD3+ cells stimulated with peptide pulsed DCs; format: cell-based, human; settings: two of four normal donors, after four stimulations
Description: (§2) Assessment of peptide specific T cells was carried out by staining 10^6 effector cells with 10 μl of PE labeled, HLA-A*0201 pentamers (custom made by Proimmune) for 10 minutes, at room temperature, in the dark. Cells were then washed and co-stained with CD8-FITC for 20 minutes at room temperature. The lymphocyte gate was selected according to FSSCH/SSCH and 50,000 events acquired. Staining with control pentamers was carried out for each sample.
as §1, with “200 μl of culture supernatants were collected at various intervals throughout the culture period and replaced with fresh medium. In the case of AML patient cultures, T2 cells were pulsed with peptide and used as stimulators in the same way as autologous DCs described above.” left out, “assays. […]” for “assays.”

patient T cells = experiment: IFNγ secretion by patient T cells following in vitro peptide stimulation; format: cell-based, human; settings: colon cancer patient T cells stimulated with peptide
Description: FIG. 4. IFNγ secretion by patient T cells following in vitro stimulations. (A) IFNγ levels in peptide stimulated cultures from AML patients (same as shown in FIGS. 3 B and E) as measured by ELISpot assays. […] Graphs show IFNγ levels at day 10 (y-axis).
as §1
(§3) The T2 line was first examined for immune stimulatory molecules by FACS analysis. […] T2 cells were cultured in serum free conditions to reduce the non-human antigens present in the FCS. T2 cells were incubated with peptide for 4 hours, washed and irradiated and seeded in 96 well plates. Purified T cells (Miltenyi) from patients were added and IFNγ secretion or the expansion of CD8^+ epitope specific T cells measured using pentamers.

peptide loaded targets = format: cell-based
[2] = system: solid tumour patient CD8+ T cells; experiment: Pentamer staining, solid tumour patient CD3+ T cells stimulated with peptide loaded autologous DCs; format: cell-based, human
Description: as §2, §1
There have been no reports of PASD1 expression in primary head and neck, prostate or colon cancer primary cells to date, but the head and neck cancer cell line Hn5^19, the lung cancer line H1299^19 and the colon cancer cell line SW480^24 are PASD1 positive. This raises the possibility that some solid cancer patients may be able to raise a response to the PASD1 peptides. Cells used in these experiments were isolated from leukophoresis samples taken several months after the cessation of treatment. Negatively purified CD3^+ T cells were stimulated with autologous monocyte derived DCs as described previously. Pentamer analysis was carried out after each stimulation.

AML patient CD8+ T cells = experiment: Pentamer staining, AML patient CD3+ T cells stimulated with peptide loaded T2 cells; format: cell-based, human; settings: AML patients, after two rounds of ex vivo stimulation
Description: as §2, §1, §3
Prior to each restimulation, cells were resuspended and aliquots taken for pentamer staining.

Substance	IFNγ responses following stimulation with autologous DCs loaded with wild type peptide (healthy donor T cells)	Secretion of IFNγ in cultures of CD4+ depleted effector cells (healthy donor T cells)	IFNγ production from normal donor T cells (healthy donor T cells)	Killing of peptide loaded targets (CTL assay) (peptide loaded targets)	further results
P4: wild type PASD1 nonamer, SEQ ID NO. 1 (LQNPRDVSV; listed as Homo sapiens)	generated some IFNγ responses	–	–	–	–
P8: wild type PASD1 peptide, SEQ ID NO. 9, PASD1 691-699 (RLWQELSDS; listed as Homo sapiens)	generated some IFNγ responses	–	–	–	IFNγ secretion (ELISpot) against the peptide of the immunisation (HHD mice): does not
P9: wild type PASD1 nonamer, SEQ ID NO. 11 (KLQERKKWQ; listed as Homo sapiens)	generated some IFNγ responses	–	–	–	–
P15: PASD1 peptide analogue with a single amino acid change, PASD1 587-595 (LINPRDVSV)	–	almost completely abolished	highest levels	did not occur	Pentamer positive T cells [1]: small population; Specific IFNγ secretion by ELISpot (patient T cells): not; Pentamer positive cells, frequency of CD8+ cells ([2]; head and neck patient, absence of peptide stimulation): same low frequency; Pentamer positive cells, frequency of the CD8+ population ([2]; head and neck patient, after peptide stimulation (P15: three rounds)): 0.06%; Pentamer positive cells ([2]; head and neck patient, fourth stimulation): did not expand this further; Pentamer positive cells ([2]; prostate cancer patient, up to four stimulations): No pentamer positive cells were detected; Pentamer positive cells, frequency of the CD8+ cells (AML patient CD8+ T cells): 0.02%
P16: PASD1 peptide analogue with a single amino acid change, PASD1 587-595 (LVNPRDVSV)	–	almost completely abolished	highest levels	did not occur	–
